The experiment addresses recombinant human prostanoid EP2 receptor (Homo sapiens (Human), UniProt P43116). Nature of the experiment: Human prostanoid EP2 receptor cellular functional assay (cAMP, HTRF). Type of experiment: cell-based. The settings on record: for EC50: CHO cells expressing recombinant human EP2, cAMP by HTRF, 30 min, 37° C., read-out: In vitro functional assay EP2 (h) EC50; for In vitro functional assay EP2 (h) % response: percent of control specific agonist response (10 μM PGE2). How it is done: Test 1.2: Human Prostanoid EP2 Receptor Cellular Functional Assay
Human CHO cells expressing the recombinant human prostanoid EP2 receptor were suspended in assay medium (HBSS buffer (Invitrogen) containing 20 mM HEPES (pH7.4) and 500 μM isobutyl-methylxanthine IBMX) and plated out to yield approximately 1×10^4 cells/well in a 96-well. Following this, cells were incubated with agonists for 30 min in the presence of the test compounds. For stimulated control measurements, separate assay wells contain 10 μM PGE2 (control specific agonist). All incubations were carried out at 37° C. in a 5% CO2 atmosphere. Following incubation, the amount of cAMP in each well was determined by HTRF method. The cells are lysed and the fluorescence acceptor (D2-labeled cAMP) and fluorescence donor (anti-cAMP antibody labeled with europium cryptate) are added. After 60 min at room temperature, the fluorescence transfer is measured at λ ex=337 nm and λ em=620 and 665 nm using a microplate reader (Rubystar, BMG).
The cAMP concentration is determined by dividing the signal measured at 665 nm by that measured at 620 nm (ratio).
The standard reference agonist PGE2 was tested at several concentrations to generate a concentration-response curve to determined EC50.
Analysis and Expression of Results
The results are expressed as a percent of control specific agonist response ((measured specific response/control specific agonist response)×100) obtained in the presence of the test compounds. The EC50 values (concentration producing a half-maximal specific response) were determined by non-linear regression analysis of the concentration-response curves generated with mean replicate values using Hill equation curve fitting (Y=D+[(A−D)/(1+(C/C50)nH)], where Y=specific response, D=minimum specific response, A=maximum specific response, C=compound concentration, and C50=EC50 and nH=slope factor). This analysis was performed using a software developed at Cerep (Hill software) and validated by comparison with data generated by the commercial software SigmaPlot® 4.0 for Windows® (© 1997 by SPSS Inc.).

Chain of recombinant human prostanoid EP2 receptor (P43116 whole entry): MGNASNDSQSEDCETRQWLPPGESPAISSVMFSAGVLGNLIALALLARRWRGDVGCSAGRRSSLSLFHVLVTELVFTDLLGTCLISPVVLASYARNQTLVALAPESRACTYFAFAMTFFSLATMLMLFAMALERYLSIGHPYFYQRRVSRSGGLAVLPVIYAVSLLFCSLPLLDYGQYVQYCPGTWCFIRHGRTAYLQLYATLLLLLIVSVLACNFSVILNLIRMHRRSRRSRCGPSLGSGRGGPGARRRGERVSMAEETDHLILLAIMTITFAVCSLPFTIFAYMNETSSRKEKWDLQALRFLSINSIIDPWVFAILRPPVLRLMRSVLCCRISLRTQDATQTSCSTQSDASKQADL

Usually EC50 stands for the midpoint of the concentration-response curve. For the compound `CC(Nc1c(F)ccc(OCC(=O)O)c1F)c1cc(-c2cccc(F)c2)ccc1F` (racemic) [I(as), (R,S)-2-[2,4-difluoro-3-[1-[2-fluoro-5-(3-fluorophenyl)phenyl]ethylamino]phenoxy]acetic acid], the EC50 was 11 nM and the “In vitro functional assay EP2 (h) % response” value was 107%.
As for `C[C@@H](Nc1c(F)ccc(OCC(=O)O)c1F)c1cc(-c2cccc(F)c2)ccc1F` (single isomer, unassigned) [I(as) (+ isomer)], the EC50 amounted to 18 nM and the “In vitro functional assay EP2 (h) % response” value stood at 124%.
With `O=C(O)COc1cccc(CN(Cc2ccc(-n3cccn3)cc2)S(=O)(=O)c2cccnc2)c1` [CP-544326, reference compound], the EC50 amounted to 46 nM and the “In vitro functional assay EP2 (h) % response” value came out at 72%.
As for `O=C(O)COc1cccc(NCc2cc(-c3cccc(F)c3)ccc2F)c1` [I(a), 2-[3-[[2-Fluoro-5-(3-fluorophenyl)phenyl]methylamino]phenoxy]acetic acid], the EC50 turned out to be 110 nM and the “In vitro functional assay EP2 (h) % response” value was determined as 74%.
On to `Cc1cc(OCC(=O)O)c(F)c(NCc2cc(-c3cccc(F)c3)ccc2F)c1F` [I(ab), 2-[2,4-difluoro-3-[[2-fluoro-5-(3-fluorophenyl)phenyl]methylamino]-5-methyl-phenoxy]acetic acid], for which the EC50 was determined as 50 nM and the “In vitro functional assay EP2 (h) % response” value is reported as 105%.
Regarding `Cc1cc(OCC(=O)O)c(C)c(NCc2cc(-c3cccc(F)c3)ccc2F)c1F` [I(ac), 2-[4-fluoro-3-[[2-fluoro-5-(3-fluorophenyl)phenyl]methylamino]-2,5-dimethyl-phenoxy]acetic acid], the EC50 is 18 nM and the “In vitro functional assay EP2 (h) % response” value is recorded as 117%.
Take `Cc1cc(CNc2c(F)ccc(OCC(=O)O)c2C)cc(-c2cccc(F)c2)c1` [I(ae), 2-[4-fluoro-3-[[3-(3-fluorophenyl)-5-methyl-phenyl]methylamino]-2-methyl-phenoxy]acetic acid]: the EC50 was determined as 3 nM and the “In vitro functional assay EP2 (h) % response” value turned out to be 83%.
Consider `COc1c(C)cc(-c2cccc(F)c2)cc1CNc1c(F)ccc(OCC(=O)O)c1C` [I(af), 2-[4-fluoro-3-[[5-(3-fluorophenyl)-2-methoxy-3-methyl-phenyl]methylamino]-2-methyl-phenoxy]acetic acid], for which the EC50 stood at 5 nM and the “In vitro functional assay EP2 (h) % response” value was 70%.
Take `Cc1c(OCC(=O)O)ccc(F)c1NCc1cc(O)cc(-c2cccc(F)c2)c1` [I(ah), 2-[4-fluoro-3-[[3-(3-fluorophenyl)-5-hydroxy-phenyl]methylamino]-2-methyl-phenoxy]acetic acid]: the EC50 stood at 8 nM and the “In vitro functional assay EP2 (h) % response” value worked out at 74%.
Regarding `Cc1cc(CNc2c(F)ccc(OCC(=O)O)c2C)c(F)c(-c2cccc(F)c2)c1` [I(ai), 2-[4-fluoro-3-[[2-fluoro-3-(3-fluorophenyl)-5-methyl-phenyl]methylamino]-2-methyl-phenoxy]acetic acid], the EC50 worked out at 35 nM and the “In vitro functional assay EP2 (h) % response” value was 80%.
Regarding `Cc1cc(CNc2c(C)ccc(OCC(=O)O)c2C)cc(-c2cccc(F)c2)c1` [I(aj), 2-[3-[[3-(3-fluorophenyl)-5-methyl-phenyl]methylamino]-2,4-dimethyl-phenoxy]acetic acid], the EC50 amounted to 7 nM and the “In vitro functional assay EP2 (h) % response” value amounted to 79%.
Take `Cc1cc(CNc2c(C)ccc(OCC(=O)O)c2C)c(F)c(-c2cccc(F)c2)c1` [I(am), 2-[3-[[2-Fluoro-3-(3-fluorophenyl)-5-methyl-phenyl]methylamino]-2,4-dimethyl-phenoxy]acetic acid]: the EC50 came out at 3 nM and the “In vitro functional assay EP2 (h) % response” value was 87%.
Consider `N#Cc1c(OCC(=O)O)ccc(F)c1NCc1cc(-c2cccc(F)c2)ccc1F` [I(an), 2-[2-cyano-4-fluoro-3-[[2-fluoro-5-(3-fluorophenyl)phenyl]methylamino]phenoxy]acetic acid], for which the EC50 turned out to be 9 nM and the “In vitro functional assay EP2 (h) % response” value was found to be 91%.

The record behind these values is patent US9249085B2, “Aniline derivatives, their preparation and their therapeutic application” (FOVEA PHARMACEUTICALS, priority 2011, dated 2016).
